Biological target: T1, human recombinant A3AR (expressed in HEK-293 cells) (Homo sapiens, UniProt P0DMS8)
T1 construct: host or cells: HEK-293 cells
T1 sequence (P0DMS8 1-318): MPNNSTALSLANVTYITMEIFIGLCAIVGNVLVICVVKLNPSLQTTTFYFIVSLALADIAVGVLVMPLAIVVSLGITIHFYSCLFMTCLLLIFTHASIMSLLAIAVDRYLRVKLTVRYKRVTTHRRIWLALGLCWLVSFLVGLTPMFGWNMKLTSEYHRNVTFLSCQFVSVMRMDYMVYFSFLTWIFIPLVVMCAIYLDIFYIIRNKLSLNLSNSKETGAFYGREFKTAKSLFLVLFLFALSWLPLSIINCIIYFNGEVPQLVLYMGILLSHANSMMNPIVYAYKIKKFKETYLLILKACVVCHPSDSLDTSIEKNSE
Experiment: Adenosine receptors antagonism assay (Eurofins), [125I]-AB-MECA radioligand competition
Type: binding
Details: [125I]-AB-MECA 0.15 nM, r.t., 120 min; IC50 from dose-response curves; read-out: Potency Class A3AR

Compound | IC50
CCC(CC)Nc1cc(NC2CCc3ccccc32)c2nnc(C(C)C)n2n1 (racemic) [compound 81, N6-(1-ethylpropyl)-N8-indan-1-yl-3-isopropyl-[1,2,4]triazolo[4,3-b]pyridazine-6,8-diamine] | 10 to 100 nM
CCC(C)Nc1cc(NCc2ccccn2)c2nnc(C3CC3)n2n1 (racemic) [compound 193, N6-(sec-butyl)-3-cyclopropyl-N8-(pyridin-2-ylmethyl)-[1,2,4]triazolo[4,3-b]pyridazine-6,8-diamine] | 1 to 10 nM
CC(C)c1nnc2c(NCc3ccccc3)cc(N[C@H](CO)[C@@H](C)O)nn12 (stereo in doubt) [compound 5, (2R,3R)-2-[[8-(benzylamino)-3-isopropyl-[1,2,4]triazolo[4,3-b]pyridazin-6-yl]amino]butane-1,3-diol] | 100 to 1000 nM
CC[C@H](CO)Nc1cc(NCc2ccccc2)c2nnc(C(C)C)n2n1 [compound 1, (2R)-2-[[8-(benzylamino)-3-isopropyl-[1,2,4]triazolo[4,3-b]pyridazin-6-yl]amino]butan-1-ol] | 10 to 100 nM
CC[C@@H](CO)Nc1cc(NCc2ccccc2)c2nnc(C(C)C)n2n1 [compound 2, (2S)-2-[[8-(benzylamino)-3-isopropyl-[1,2,4]triazolo[4,3-b]pyridazin-6-yl]amino]butan-1-ol] | 10 to 100 nM
CC(C)c1nnc2c(NCc3ccccc3)cc(NC(CO)CO)nn12 [compound 3, 2-[[8-(benzylamino)-3-isopropyl-[1,2,4]triazolo[4,3-b]pyridazin-6-yl]amino]propane-1,3-diol] | 100 to 1000 nM
CC(C)c1nnc2c(NCc3ccccc3)cc(N3CCOCC3)nn12 [compound 6, N-benzyl-3-isopropyl-6-morpholino-[1,2,4]triazolo[4,3-b]pyridazin-8-amine] | 100 to 1000 nM
CC(C)c1nnc2c(NCc3ccccc3)cc(NCCOCCOCCN)nn12 [compound 8, N6-[2-[2-(2-aminoethoxy)ethoxy]ethyl]-N8-benzyl-3-isopropyl-[1,2,4]triazolo[4,3-b]pyridazine-6,8-diamine] | 100 to 1000 nM
CC(C)c1nnc2c(NCc3ccccc3)cc(NCCCO)nn12 [compound 9, 3-[[8-(benzylamino)-3-isopropyl-[1,2,4]triazolo[4,3-b]pyridazin-6-yl]amino]propan-1-ol] | 100 to 1000 nM
COCCCNc1cc(NCc2ccccc2)c2nnc(C(C)C)n2n1 [compound 10, N8-benzyl-3-isopropyl-N6-(3-methoxypropyl)-[1,2,4]triazolo[4,3-b]pyridazine-6,8-diamine] | 10 to 100 nM
CC(C)c1nnc2c(NCc3ccccc3)cc(NCCO)nn12 [compound 11, 2-[[8-(benzylamino)-3-isopropyl-[1,2,4]triazolo[4,3-b]pyridazin-6-yl]amino]ethanol] | 100 to 1000 nM
COCCNc1cc(NCc2ccccc2)c2nnc(C(C)C)n2n1 [compound 12, N8-benzyl-3-isopropyl-N6-(2-methoxyethyl)-[1,2,4]triazolo[4,3-b]pyridazine-6,8-diamine] | 100 to 1000 nM
CC(C)c1nnc2c(NCc3ccccc3)cc(NCCCCO)nn12 [compound 13, 4-[[8-(benzylamino)-3-isopropyl-[1,2,4]triazolo[4,3-b]pyridazin-6-yl]amino]butan-1-ol] | 10 to 100 nM
COCCCCNc1cc(NCc2ccccc2)c2nnc(C(C)C)n2n1 [compound 14, N8-benzyl-3-isopropyl-N6-(4-methoxybutyl)-[1,2,4]triazolo[4,3-b]pyridazine-6,8-diamine] | 10 to 100 nM
CC(C)c1nnc2c(NCc3ccccc3)cc(NCCCCCO)nn12 [compound 15, 5-[[8-(benzylamino)-3-isopropyl-[1,2,4]triazolo[4,3-b]pyridazin-6-yl]amino]pentan-1-ol] | 100 to 1000 nM
COCCCCCNc1cc(NCc2ccccc2)c2nnc(C(C)C)n2n1 [compound 16, N8-benzyl-3-isopropyl-N6-(5-methoxypentyl)-[1,2,4]triazolo[4,3-b]pyridazine-6,8-diamine] | 100 to 1000 nM
CCC(CC)Nc1cc(NCc2ccccc2)c2nnc(C(C)C)n2n1 [compound 18, N8-benzyl-N6-(1-ethylpropyl)-3-isopropyl-[1,2,4]triazolo[4,3-b]pyridazine-6,8-diamine] | 1 to 10 nM
CC(C)c1nnc2c(NCc3ccccc3)cc(N[C@@H]3CCOC3)nn12 [compound 19, N8-benzyl-3-isopropyl-N6-[(3R)-tetrahydrofuran-3-yl]-[1,2,4]triazolo[4,3-b]pyridazine-6,8-diamine] | 10 to 100 nM
CC(C)c1nnc2c(NCc3ccccc3)cc(N[C@@H]3CCCOC3)nn12 [compound 21, N8-benzyl-3-isopropyl-N6-[(3R)-tetrahydropyran-3-yl]-[1,2,4]triazolo[4,3-b]pyridazine-6,8-diamine] | 10 to 100 nM

Compound | IC50
CC(C)c1nnc2c(NCc3ccccc3)cc(N[C@H]3CCCOC3)nn12 [compound 22, N8-benzyl-3-isopropyl-N6-[(3S)-tetrahydropyran-3-yl]-[1,2,4]triazolo[4,3-b]pyridazine-6,8-diamine] | 10 to 100 nM
CC(C)c1nnc2c(NCc3ccccc3)cc(NC3CCOCC3)nn12 [compound 23, N8-benzyl-3-isopropyl-N6-tetrahydropyran-4-yl-[1,2,4]triazolo[4,3-b]pyridazine-6,8-diamine] | 10 to 100 nM
CC(=O)NCCCNc1cc(NCc2ccccc2)c2nnc(C(C)C)n2n1 [compound 24, N-[3-[[8-(benzylamino)-3-isopropyl-[1,2,4]triazolo[4,3-b]pyridazin-6-yl]amino]propyl]acetamide] | 100 to 1000 nM
CC(C)c1nnc2c(NCc3ccccc3)cc(NCCC(N)=O)nn12 [compound 25, 3-[[8-(benzylamino)-3-isopropyl-[1,2,4]triazolo[4,3-b]pyridazin-6-yl]amino]propanamide] | 100 to 1000 nM
CNC(=O)CCNc1cc(NCc2ccccc2)c2nnc(C(C)C)n2n1 [compound 26, 3-[[8-(benzylamino)-3-isopropyl-[1,2,4]triazolo[4,3-b]pyridazin-6-yl]amino]-N-methyl-propanamide] | 10 to 100 nM
CC(C)c1nnc2c(NCc3ccccc3)cc(NCCC(=O)N(C)C)nn12 [compound 27, 3-[[8-(benzylamino)-3-isopropyl-[1,2,4]triazolo[4,3-b]pyridazin-6-yl]amino]-N,N-dimethyl-propanamide] | 100 to 1000 nM
COC(=O)CCNc1cc(NCc2ccccc2)c2nnc(C(C)C)n2n1 [compound 28, methyl 3-[[8-(benzylamino)-3-isopropyl-[1,2,4]triazolo[4,3-b]pyridazin-6-yl]amino]propanoate] | 10 to 100 nM
CCOC(=O)CCNc1cc(NCc2ccccc2)c2nnc(C(C)C)n2n1 [compound 29, ethyl 3-[[8-(benzylamino)-3-isopropyl-[1,2,4]triazolo[4,3-b]pyridazin-6-yl]amino]propanoate] | 10 to 100 nM
CC[C@H](CO)Nc1cc(NCc2ccccc2)c2nnc(C3CC3)n2n1 [compound 30, (2R)-2-[[8-(benzylamino)-3-cyclopropyl-[1,2,4]triazolo[4,3-b]pyridazin-6-yl]amino]butan-1-ol] | 100 to 1000 nM
COCCCNc1cc(NCc2ccccc2)c2nnc(C3CC3)n2n1 [compound 31, N8-benzyl-3-cyclopropyl-N6-(3-methoxypropyl)-[1,2,4]triazolo[4,3-b]pyridazine-6,8-diamine] | 10 to 100 nM
COCCCNc1cc(NCc2ccccc2)c2nnc(C)n2n1 [compound 32, N8-benzyl-N6-(3-methoxypropyl)-3-methyl-[1,2,4]triazolo[4,3-b]pyridazine-6,8-diamine] | 100 to 1000 nM
COCCCNc1cc(NCc2ccccc2)c2nnc(-c3ccccc3)n2n1 [compound 34, N8-benzyl-N6-(3-methoxypropyl)-3-phenyl-[1,2,4]triazolo[4,3-b]pyridazine-6,8-diamine] | 100 to 1000 nM
CC[C@H](CO)Nc1cc(NCc2ccccc2)c2nnc(-c3ccccc3)n2n1 [compound 35, (2R)-2-[[8-(benzylamino)-3-phenyl-[1,2,4]triazolo[4,3-b]pyridazin-6-yl]amino]butan-1-ol] | 10 to 100 nM
COCCCNc1cc(NCc2ccccc2)c2nnc(C(F)(F)F)n2n1 [compound 36, N8-benzyl-N6-(3-methoxypropyl)-3-(trifluoromethyl)-[1,2,4]triazolo[4,3-b]pyridazine-6,8-diamine] | 10 to 100 nM
CC[C@H](CO)Nc1cc(NCc2ccccc2)c2nnc(C(F)(F)F)n2n1 [compound 37, (2R)-2-[[8-(benzylamino)-3-(trifluoromethyl)-[1,2,4]triazolo[4,3-b]pyridazin-6-yl]amino]butan-1-ol] | 10 to 100 nM
CC[C@H](CO)Nc1cc(NCc2ccccc2O)c2nnc(C(C)C)n2n1 [compound 38, 2-[[[6-[[(1R)-1-(hydroxymethyl)propyl]amino]-3-isopropyl-[1,2,4]triazolo[4,3-b]pyridazin-8-yl]amino]methyl]phenol] | 1 to 10 nM
COCCCNc1cc(NCc2ccccc2O)c2nnc(C(C)C)n2n1 [compound 39, 2-[[[3-isopropyl-6-(3-methoxypropylamino)-[1,2,4]triazolo[4,3-b]pyridazin-8-yl]amino]methyl]phenol] | 10 to 100 nM
CCC(CC)Nc1cc(NCc2ccccc2O)c2nnc(C(C)C)n2n1 [compound 40, 2-[[[6-(1-ethylpropylamino)-3-isopropyl-[1,2,4]triazolo[4,3-b]pyridazin-8-yl]amino]methyl]phenol] | 1 to 10 nM
CCC(CC)Nc1cc(NCc2cccc(O)c2)c2nnc(C(C)C)n2n1 [compound 41, 3-[[[6-(1-ethylpropylamino)-3-isopropyl-[1,2,4]triazolo[4,3-b]pyridazin-8-yl]amino]methyl]phenol] | 1 to 10 nM

— patent EP4477653A1 (Perha Pharmaceuticals, priority 2023, dated 2024)
